Measurements: ChEMBL document CHEMBL1123997, “Modeling of beta-adrenoceptors based on molecular electrostatic potential studies of agonists and antagonists” (J Med Chem, 1988)

What was measured:
[1] = molecular target: T1, Adrenergic receptor beta (Homo sapiens) (UniProt P08588+P07550+P13945)
[2] = molecular target: T1, Adrenergic receptor beta (Homo sapiens); conditions: filed as antagonist
[3] = molecular target: T1, Adrenergic receptor beta (Homo sapiens); remark: listed apart in the source
[4] = molecular target: T1, Adrenergic receptor beta (Homo sapiens); conditions: filed as antagonist; remark: listed apart in the source
[5] = molecular target: T1, Adrenergic receptor beta (Homo sapiens); conditions: filed as agonist
Description: Tested for intrinsic sympathomimetic activity (ISA); Agonist

`CC(C)NCC(O)c1ccc(Cl)c(Cl)c1` (centres undefined) was tested. Which ISA [1] did it give?
Its ISA is “Partial agonist”.

Which ISA [2] does the source give for `CC(C)(C)NCC(O)COc1cccc2c1CCCC2=O` (centres undefined) here?
The ISA was “Antagonist”.

For `Cc1cc2c(OCC(O)CNC(C)C)cccc2[nH]1` (centres undefined), which ISA [3] is on record?
Its ISA is “Partial agonist”.

How did the ISA [4] turn out when `CC(C)(C)NCC(O)COc1cccc2c1CC(O)C(O)C2` (centres undefined) was run?
The ISA was “Antagonist”.

Which ISA [3] does the source give for `CC(C)(C)NCC(O)COc1ccccc1C#N` (centres undefined) here?
The ISA was “Partial agonist”.

`CCN(CC)C(=O)Nc1ccc(OCC(O)CNC(C)(C)C)c(C(C)=O)c1` (centres undefined) was tested. Which ISA [3] did it give?
Its ISA is “Partial agonist”.

With `CC(C)NCC(O)COc1cccc2[nH]ccc12` (centres undefined) as the compound, how does the ISA [1] read?
Its ISA is “Partial agonist”.

For `COCCOc1ccc(OC[C@@H](O)CNC(C)C)cc1`, which ISA [1] is on record?
The ISA was “Partial agonist”.

How did the ISA [4] turn out when `COc1ccc(CCNC[C@H](O)COc2ccc(Cc3nc(C(C)=O)c[nH]3)cc2)cc1OC` was run?
Its ISA is “Antagonist”.

With `NC[C@H](O)c1ccc(O)c(O)c1` as the compound, how does the ISA [5] read?
Its ISA is “Agonist”.

With `CC(C)(C)NC[C@H](O)COc1cccc2c1CC1(CCCCC1)C2=O` as the compound, how does the ISA [4] read?
The ISA was “Antagonist”.

How did the ISA [1] turn out when `CCc1cccc2cc(C(O)CNC(C)(C)C)oc12` (centres undefined) was run?
Its ISA is “Partial agonist”.

Which ISA [3] does the source give for `COc1ccc(CCNC[C@H](O)COc2ccc(-c3nc(C(C)=O)c[nH]3)cc2)cc1OC` here?
The ISA was “Partial agonist”.

For `CC(C)(C)NCC(O)COc1cccc2c1SCCC2` (centres undefined), which ISA [4] is on record?
The ISA was “Antagonist”.
